Publication PMC10761660, “Preclinical evaluation of an ^18F-labeled N^ε-acryloyllysine piperazide for covalent targeting of transglutaminase 2” (EJNMMI Radiopharmacy and Chemistry, 2024)
“And” between values parts separate entries of the source, which are not always exact repeats. Identical values can stand only once. “Also recorded” adds a separate entry of the source. Like-named read-outs stand apart in the source and are kept apart here.

Assays:
[1] = Metabolic stability and arterial blood clearance in a normal Wistar rat; type: in vivo; details: for c02: i.v. 5.27 nmol; for half-life / Vd / clearance / k el: male, iv, 5.27 nmol; for half-life / Vd / clearance: Wistar, rat; for clearance: plasma
Procedure: The following procedure was performed as recently published (Laube et al. [2020]). For assessing the in vivo stability, [^18F]7b (69.8 MBq corresponding to 5.27 nmol in 0.5 mL 0.9% NaCl with 5% ethanol (v/v)) was injected i.v. into a male Wistar rat (body weight 170 g) under desflurane anesthesia (10% desflurane in 30% oxygen/air, v/v). Using a catheter, blood samples from femoral artery were taken at 1, 3, 5, 10, 20, 30, 60, and 120 min p.i. The resulting loss of volume was compensated by i.v. injection of E153. Plasma was separated by centrifugation (3 min; 13,000 × g) followed by precipitation of plasma proteins with ice-cold Supersol (EtOH 20% (v/v), Triton X-100 0.5% (v/v), EDTA 5 mM, o-Phenanthroline 0.5 mM, Saponin 0.1% (w/v)). Clear supernatant separated by a second centrifugation step (3 min; 13,000 × g) was analyzed by radio-HPLC (Hewlett Packard Series 1100 equipped with a γ-detector (Raytest Ramona), Zorbax SB-C18, 300 Å, 4 μm, 250 × 9.4 mm (Agilent), eluent A, 0.1% (v/v) trifluoroacetic acid in H2O; eluent B, 0.1% (v/v) trifluoroacetic acid in CH3CN). Gradient elution was performed using 95% eluent A for 5 min, 95% eluent A to 95% eluent B in 10 min, 95% eluent B for 5 min, and 95% eluent B to 95% eluent A in 5 min, 3 mL/min, 50 °C. The clear supernatant was also analyzed by radio-TLC using reversed-phase TLC plates (ALUGRAM RP-18W/UV254 from Macherey–Nagel, Düren, Germany) with a mobile phase of 50% CH3CN in water containing 0.1% trifluoroacetic acid. For total protein precipitation at 5 and 60 min p.i., plasma samples were diluted with twice the volume of 15% trichloroacetic acid (TCA) in water instead of Supersol. Clear supernatant was separated by centrifugation (3 min; 13,000 × g) and analyzed as described above.
The measured activity concentrations (decay-corrected) in the blood samples of the Wistar rat were transformed into concentrations of 7b by taking the molar activity of [^18F]7b into account. These values were corrected by the fractions of intact [^18F]7b as analyzed by radio-HPLC or radio-TLC. These corrected concentrations were plotted against the time and analysis was performed by nonlinear regression according to two-phase decay as implemented in GraphPad Prism (Plateau was set to 0, Fig. 3B). However, for derivation of pharmacokinetic parameters, the corrected concentrations were converted to their log values and plotted against the time (semi-logarithmic plot, see inset in Fig. 3B). By linear regression of the data from 3 to 30 min, values for c02 (putative concentration of 7b at the beginning of the elimination phase) and kel (elimination rate constant) were derived. C02 was obtained as antilog of the intercept at the y-axis and kel represents the slope of the line. By knowing these two parameters as well as the applied dose (D = 5.27 nmol), the apparent volume of distribution (VD) and the plasma clearance (CL) was calculated using equations 7 and 8 (Freissmuth et al. [2016]).7 VD=D/c02 8 CL=kβ×VD

Liver microsome assay = type: in vitro ADME, murine; details: MLM, without prior oxidation (data not shown)
[2] = design: method as in Wodtke et al. [2021]; details: ref Wodtke et al. [2021]; cited from earlier work
[3] = tested on: MeWo tumor xenograft (TGase 2 −); test: Ex vivo biodistribution in tumor-bearing mice (MeWo); design: species or system mice (Rj:NMRI-Foxn1 nu/nu)
Procedure: For biodistribution studies in tumor-bearing mice, a number of 5 × 10^6 A375-hS100A4 or MeWo cells were resuspended in 100 µL PBS and injected subcutaneously into nude mice (Rj:NMRI-Foxn1 nu/nu). Tumor growth was monitored three times per week using caliper measurements. The injection of [^18F]7b and subsequent steps were performed as described above.

[4] = whole blood (arterial), radio-HPLC

With `C=CC(=O)NCCCCC(NC(=O)Cc1ccccc1)C(=O)N1CCN(c2cccc([18F])n2)CC1` (stereo not shown) [[^18F]7b] the “fraction of unmodified [^18F]7b in both blood components” value ([1]; 20 min p.i., plasma and erythrocytes) was > 40%, the “residual intact [^18F]7b in intestinal content” value ([1]; 120 min (2 h) p.i., radio-HPLC) was 7% and the “residual intact [^18F]7b in urine” value ([1]; 120 min (2 h) p.i., radio-HPLC) was 8%. For the same compound, the “binding of ^18F-activity to plasma proteins” value ([1]; ex vivo plasma, protein precipitation) was “not protein-bound; also recorded: quite low”, the c02 ([1]; intact fraction by radio-HPLC) was 22.4 nM and the c02 ([1]; intact fraction by radio-TLC) was 18.4 nM. The “terminal t1/2 (elimination half-life)” value ([1]; i.v., radio-HPLC) was 17 min, the half-life ([1]; arterial blood, i.v., radio-TLC, read-out: terminal t1/2) was 16 min and the Vd ([1]; arterial blood, radio-HPLC) was 0.235 L. The Vd ([1]; arterial blood, radio-TLC) was 0.287 L and 1.69 L/kg, the clearance ([1]; i.v., radio-HPLC data, read-out: plasma clearance (plasma CL)) was 56 mL/min/kg and the clearance ([1]; i.v., radio-HPLC, read-out: Plasma CL) was 9.5 mL/min and 56 mL/min/kg. The clearance ([1]; i.v., radio-TLC, read-out: Plasma CL) was 12.6 mL/min and 74 mL/min/kg, the half-life ([1]; whole blood (arterial), i.v., radio-HPLC, read-out: terminal t1/2 (elimination half-life)) was 17.2 min and the Vd [1, 4] was 1.38 L/kg. The k el ([1]; arterial blood, radio-TLC) was 0.000733 s⁻¹, the k el [1, 4] was 0.000667 s⁻¹ and the “^18F-activity in blood bound to erythrocytes” value ([1]; stable from 10 to 120 min p.i.) was “≈ 30%”. For the same compound, the “^18F-activity in blood located in the plasma fraction” value ([1]; stable from 10 to 120 min p.i.) was “≈ 60%”, the susceptibility to glucuronidation (Liver microsome assay) was “not susceptible to glucuronidation” and the logD7.4 [2] was 2.1. For the same compound, the tumor/muscle ratio [3] was 1.0.
